Legend:
[1] = both compounds in the free form; cited from earlier work
YAC-1 lymphoma cells [2] = experiment: Splenic NK activity against YAC-1 cells (51Cr release); type: cell-based, mice
Procedure: Fresh spleen cells were added to ^51 Cr labeled YAC-1 cells at different effector to target cell ratios.

IL-2 = IL-2 activity of adherent PEC culture supernatants (IL-2 dependent CTCL-1 line); type: cell-based
Procedure: The purpose is to determine if the enhanced macrophage tumoricidal activity and NK activity detailed above correlates with increases in either IL-1 or IL-2.
(§1) The cells were cultured for 18 hours with the concentrations of LPS indicated below in Table 4.
The procedure used for assaying IL-2 has been described (Ehrke, 1986). Briefly, using a long term, IL-2 dependent cytolytic T cell line (CTCL-1), 10^4 cells in 0.1 ml were added to 0.1 ml volumes of conditioned media from adherent PEC cultures. The cells were incubated for 24 h and pulsed with [^3 H]Thd ([…]) 4 h before harvest. Results were expressed as the arithmetic mean of cpm dThd uptake ±S.D. A semipurified, rat IL-2 preparation was used as a positive control.

[3] = Acute and chronic toxicity (LD50) after single i.v. dose in healthy mice; conditions: mouse, in vivo, iv
Procedure: The toxicity of the three ADM preparations in Table 1 above was tested against healthy DMA 2J mice.
The data are expressed in terms of LD50, i.e. the dosage (in mg drug per kilogram of animal body weight) which produces death in half the animals receiving the drug. […] The number of mice available for determination of chronic toxicity (survival of acute toxicity) varied from between about 2 and 10 mice per group.

YAC-1 lymphoma cells [4] = experiment: PEC NK activity with and without anti-Asialo GM1 antibody + complement; type: cell-based, mice; conditions: PEC 7 days after treatment; for NK activity, specific 51Cr release, Untreated: no antibody
Procedure: In order to verify that the effector cells in the PEC population that were active against YAC-1 cells had.NK properties, PECs were treated with anti-Asialo GMI antiserum and complement in vitro prior to the 4 hr toxicity assay for PECs.
Anti-Asialo GM1 antibody was added directly to PEC in the microwells at a final dilution of 1:20. After 30 min on ice the cultured effector cells were spun down, supernatant removed and the cells resuspended. Low toxicity rabbit complement was added (final dilution 1:20) and the cultures incubated for 45 min. After 3 washings, the PECs (5×10^5) were cultures with 10^4 radio-labeled YAC-1 cells, and radioactivity released was assayed after 4 hours.

L1210 leukemia cells = experiment: Acute therapeutic effect (mean survival time) in mice injected i.p. with 10^6 L1210 leukemia cells, i.v. ADM; type: in vivo, DBA 2J mice; conditions: one day after L1210
Procedure: The day of death of the animals was recorded, and the mean survival time of each group was calculated. Each group contained from between 6 and 10 mice.

[5] = PEC ADM content by fluorescence after i.p. administration; type: in vivo, mice
Procedure: ADM was extracted from 10^6 PEC/sample by sonication in 36.5% HCl: absolute ethanol (1:11) in an ice bath for 5 min. This sonicated lysate was centrifuged (12,150×g) for 20 min at 4-6 C. The supernatant was measured for fluorescence at 468 nm excitation and 585 nm emission using a Perkin-Elmer (Model 650-10S) spectrofluorometer.

IL-1 = IL-1 like activity of adherent PEC culture supernatants (thymocyte comitogenic assay); type: cell-based, C3H/Hej mice
Procedure: as §1
A standard thymocyte comitogenic assay for IL-1 was used to test 18 h adherent PEC culture supernatants for IL1 like activity. Thymopytes (5×10^5) from C3H/Hej mice were added in 0.1 ml/well to flat bottom, 96 well plates. An equal volume of adherent PEC culture supernatant was added for a final volume of 0.2 ml. To facilitate a proliferative response, the media was supplemented with PHA ([…]) and 2-mercaptoethanol ([…]). Cultures were incubated for 72 h. Four hours before harvesting, the cultures were pulsed with [^3 H]dThd (New England Nuclear, 2 Ci/mole; […]).
Cells were harvested on glass fiber filters with an Otto Hiller cell harvester. The radioactivity was measured by scintillation counting using a Beckmann counter (Model LS 7000). Thymidine uptake by the thymocytes was expressed as mean cpm±S.D.

Cc1c(C)c2c(c(C)c1O)CCC(C)(CCCC(C)CCCC(C)CCCC(C)C)O2 (stereo not drawn) [alpha-tocopherol (vitamin E), alpha-tocopherol]
cardiotoxicity of ADM (in words) [1]: reduce the cardiotoxicity of ADM in animals

COc1cccc2c1C(=O)c1c(O)c3c(c(O)c1C2=O)C[C@@](O)(C(=O)CO)C[C@@H]3O[C@H]1C[C@H](N)[C@H](O)[C@H](C)O1 [free ADM, doxorubicin]
duration of suppression of splenic NK (in words) (YAC-1 lymphoma cells [2]): transient | splenic NK suppression (in words) (YAC-1 lymphoma cells [2]; 7 or 11 days before sacrifice): suppression was not observed | splenic NK activity (in words) (YAC-1 lymphoma cells [2]; 4 days following treatment): reduced | IL-2 activity (dThd uptake) (IL-2; LPS 0 ng/ml): 285 ± 86 cpm | IL-2 activity (dThd uptake) (IL-2; LPS 0.001-1000 ng/ml): 286 ± 74 cpm | IL-2 activity (in words) (IL-2; with or without LPS activation): about background | LD50 at 2880 h ([3]; death between 50 and 120 days, read-out: Mean LD50 ± S.D., chronic): 12 ± 5 mg/kg | LD50 at 336 h ([3]; death within 14 days, read-out: Mean LD50 ± S.D., acute): 20 ± 5 mg/kg | NK activity, specific 51Cr release, Asialo GM1 Antibody + Complement (YAC-1 lymphoma cells [4]; Exp. No. 1): 3.4 ± 0.9% | NK activity, specific 51Cr release, Untreated (YAC-1 lymphoma cells [4]; Exp. No. 1): 16.9 ± 2.6% | NK activity, specific 51Cr release, Asialo GM1 Antibody + Complement (YAC-1 lymphoma cells [4]; Exp. No. 2): 0.2 ± 0.8% | NK activity, specific 51Cr release, Untreated (YAC-1 lymphoma cells [4]; Exp. No. 2): 18.9 ± 1.4% | Mean Survival Time ± S.D. (L1210 leukemia cells; 10 mg/kg ADM): 18.4 ± 1.8 days | Mean Survival Time ± S.D. (L1210 leukemia cells; 20 mg/kg ADM): 12.2 ± 1.6 days | ADM Equivalents in PEC ([5]; Day 4, i.p.): 4.2 ± 0.5 ng ADM/10^6 PECs | ADM Equivalents in PEC ([5]; Day 7, i.p.): 1.4 ± 0.4 ng ADM/10^6 PECs | ADM Equivalents in PEC ([5]; Day 11, i.p.): 0.2 ± 0.2 ng ADM/10^6 PECs | IL-1 activity (thymidine uptake by thymocytes) (IL-1; LPS 0 ng/ml): 9142 ± 1179 cpm | IL-1 activity (thymidine uptake by thymocytes) (IL-1; LPS 0.001 ng/ml): 9693 ± 230 cpm | IL-1 activity (thymidine uptake by thymocytes) (IL-1; LPS 0.1 ng/ml): 11588 ± 953 cpm | dependence of IL-1-like activity on LPS (in words) (IL-1; LPS 0.001 to 1,000 ng/ml): no significant increase in this activity from ADM PEC was observed with LPS exposure

Reference: US4873088A, “Liposome drug delivery method and composition” (priority 1987, dated 1989)
